The subject of one series is L1210 cells. Put plainly: In vitro uptake by L1210 tumor cells. Type of series: cell-based, mouse. Conditions: 24 hours, 10 μg/ml; for Uptake in vitro: average + SD of three determinations. Here is the method:
Uptake of DHE or CHE, purified by gel-exclusion chromatography, was measured by extraction of cells after 24 hour incubations in vitro. Cell pellets (20-30 mg) were suspended in 800 μL of phosphate buffer (pH 3.5) and shaken for 3 minutes with 2 ml of a 1:1 mixture of methanol: chloroform. The lower phase was collected by centrifugation and used for measurement of absorbance at 400 nm.
In vitro uptake of DHE, CHE and HPD, hematoporphyrin, mesochlorin and bonellin by tumor cells was studied using L1210 cells incubated for 24 hours with 10 μg/ml concentrations of each respective compound. The cells were then washed for 30 minutes in fresh medium at 37° C. and drug concentrations were determined.

A further series deals with Lewis lung tumor. Put plainly: In vivo accumulation in Lewis lung tumor (extraction, fluorescence). Conditions: for accumulation of fluorescent components at tumor loci (in words) / Uptake in vivo: 5 mg/kg i.p., 48 hours after injection; for Uptake in vivo: average + SD of three determinations; for fluorescence emission of tumor extracts (in words): excitation 400 nm, FIG. IV. Here is the method: In vivo biological studies were conducted using DHE, CHE, HPD, hematoporphyrin, mesochlorin and bonellin. The Lewis lung tumor was maintained in female C57BL/6 mice by S.C. implant. Seven days after implantation, a respective compound was administered to test mice by i.p. injection at a dosage level of 5 mg/kg. Forty-eight hours after injection, each tumor was excised, weighed and homogenized in 50 mM 4-(2-hydroxyethyl)-1-piperazineethanesulfonic acid buffer (pH7) containing 10 mM cetyltrimethyl ammonium bromide (1 m./100 mg tissue). The resulting homogenates were shaken with 2.5 volumes of methanol: chloroform (1:1) and the phases separated by centrifugation. Under these conditions, fluorescence is quantitatively extracted into the chloroform-rich phase. These extracts were used for determination of fluorescence emission spectra (excitation wave length, 400 nm). […] For analytical studies, the extracts were evaporated and the residue hydrolyzed in 0.5 M HCl at 37° C. for 18 hours.

Series [1] relates to L1210 mouse/leukemia cells. Description: Photodynamic effects on cell viability as a function of irradiation wavelength (soft-agar clonogenic assay). It is filed as cell-based. Conditions: for Action spectrum: cell viability after irradiation at 620 nm (mean + SD of control percentage) / Action spectrum: cell viability after irradiation at 630 nm (mean + SD of control percentage) / Action spectrum: cell viability after irradiation at 640 nm (mean + SD of control percentage) / Action spectrum: cell viability after irradiation at 650 nm (mean + SD of control percentage): 24 h incubation, 5 g/ml (so in the source), 2000 J/m^2, five minutes; for optimal phototoxic light wave length: cells loaded for 24 hours. Here is the method: In order to determine the photosensitization capacity of DHE and CHE, respectively, comparison in vitro tests were prepared using L1210 mouse/leukemia cells grown in culture using Fischer's medium plus 10 percent horse serum. Cell suspensions (7 mg/ml wet weight) were incubated for 24 hours in growth medium containing the 5 µg/ml of the respective photosensitizer. The cell suspensions were, then, washed for 30 minutes at 37° C. in fresh medium to remove readily diffusible porphyrine.
Irradiation was carried out for five minutes (fluence =2000 J/m^2) using a 100 w tungsten-halogen lamp with a wave length selected via narrow bandpass interference filters (=10 nm). Photodynamic effects on cell viability, as a function of irradiation wavelength, were measured by a soft-agar clonogenic assay in the manner described in Kessel, "Determinants of Hematoporphyrincatalyzed Photosensitization" 36 Photochemical Photobiology pp. 99-101 (1982) which is incorporated herein by reference. Light filters were purchased from the Oriel Corp. of Stanford, CT, and the light flux was measured with a thermopile obtained from the same source.

Series [2] can be described thus: Storage stability of aqueous solutions of CHE. Type of series: physicochemical. Here is the method: The storage stability of aqueous solutions of CHE (ph 7.5) is determined at -20° C. and at 4° C. respectively.

For the compound `CC1=C(CCC(=O)O)c2cc3nc(cc4[nH]c(cc4C)cc4[nH]c(cc1n2)cc4C)C(C)(C)C3CCC(=O)O` (centres unmarked) [Bonellin, bonellin], the Uptake in vitro in the series on L1210 cells was found to be 0.06 µg/100 mg cells. In addition, in the series on Lewis lung tumor, the “accumulation of fluorescent components at tumor loci (in words)” value was “no detectible concentration of fluorescent products at tumor loci” and the Uptake in vivo is given as less than 0.01.

For the compound `CCC1=C(C)c2cc3[nH]c(cc4nc(cc5[nH]c(cc1n2)c(C)c5CCC(=O)OC(C)C1=C(C)c2cc5[nH]c(cc6nc(cc7[nH]c(cc1n2)c(C)c7CCC(=O)O)C(CCC(=O)O)=C6C)c(C)c5C(C)O)C(CCC(=O)O)C4C)c(C)c3CC` (centres unmarked) [CHE, chlorin-hematoporphyrin ester], in series [1], the “Action spectrum: cell viability after irradiation at 620 nm (mean + SD of control percentage)” value was 96 + 5 control percentage, the “Action spectrum: cell viability after irradiation at 630 nm (mean + SD of control percentage)” value is on record as 87 + 5 control percentage, the “Action spectrum: cell viability after irradiation at 640 nm (mean + SD of control percentage)” value was 10 + 2 control percentage and the “Action spectrum: cell viability after irradiation at 650 nm (mean + SD of control percentage)” value is given as 65 + 2 control percentage. The “optimal phototoxic light wave length” value in series [1] was 640 nm. In series [1] (constant flux of 2000 J/M^2, CHE vs DHE), the “lethality relative to DHE” value was determined as 5 fold. In the series with L1210 cells, the “in vitro accumulation compared between drugs (in words)” value is “almost identical”. Further, the “fluorescence emission of tumor extracts (in words)” value in the series on Lewis lung tumor is on record as “greater tumor fluorescence emission at 647 nm than at 627 nm”. In series [2] (pH 7.5, 4° C.), the “storage stability of aqueous solution at 4° C.” value is “gradual hydrolysis of the ester-linkage”. Also, the “storage stability of aqueous solution at -20° C.” value in series [2] (pH 7.5, -20° C.) is on record as “remained stable”.

Take Dihematoporphyrin ester [DHE]: in series [1], the “Action spectrum: cell viability after irradiation at 620 nm (mean + SD of control percentage)” value is given as 68 + 4 control percentage, the “Action spectrum: cell viability after irradiation at 630 nm (mean + SD of control percentage)” value is listed as 45 + 2 control percentage, the “Action spectrum: cell viability after irradiation at 640 nm (mean + SD of control percentage)” value was 85 + 5 control percentage and the “Action spectrum: cell viability after irradiation at 650 nm (mean + SD of control percentage)” value is recorded as 96 + 3 control percentage. The “optimal phototoxic light wave length” value in series [1] is 630 nm. In the series on L1210 cells, the “in vitro accumulation compared between drugs (in words)” value is recorded as “almost identical” and the Uptake in vitro is given as 0.49. In the series with Lewis lung tumor, the “accumulation of fluorescent components at tumor loci (in words)” value is listed as “accumulation of fluorescent components at tumor loci”, the Uptake in vivo is on record as 2.1 and the “fluorescence emission of tumor extracts (in words)” value is on record as “fluorescence at 627 nm only”.

For the origin of these results see patent US4861876A, “Hematoporphyrin derivative and method of preparation and purification” (priority 1986, dated 1989).
